Key:
[1] = test system: rape; test: Test B pre/postemergence rape; format: in vivo, Brassica napus
Method in brief: (§1)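 Herbicidal effect was estimated by eye on a ten-point control scale after plants spent twelve to sixteen days in a greenhouse following soil or foliar treatment. Foliar sprays targeted plants at one to four leaves; all doses were formulated in a non-phytotoxic solvent with surfactant.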

[2] = test system: smallflower flatsedge; test: Test B flood test smallflower flatsedge; format: in vivo, Cyperus difformis
Method in brief: (§2)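 Each value is a visual injury score relative to controls, with 10 meaning complete control and 0 no effect. Evaluation took place twelve to sixteen days after the 2-leaf-stage plants were treated and kept in the greenhouse.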

[3] = test system: soybean; test: Test B pre/postemergence soybean; format: in vivo, Glycine max
Method in brief: as §1

[4] = test system: pigweed; test: Test B pre/postemergence pigweed; format: in vivo, Amaranthus retroflexus
Method in brief: as §1

[5] = test system: morningglory; test: Test B pre/postemergence morningglory; format: in vivo, Ipomoea hederacea
Method in brief: as §1

[6] = test system: giant foxtail; test: Test B pre/postemergence giant foxtail; format: in vivo, Setaria faberii
Method in brief: as §1

[7] = test system: purple nutsedge; test: Test B pre/postemergence purple nutsedge; format: in vivo, Cyperus rotundus
Method in brief: as §1

[8] = test system: wheat; test: Test B pre/postemergence wheat; format: in vivo, Triticum aestivum
Method in brief: as §1

[9] = test system: duck salad; test: Test B flood test duck salad; format: in vivo, Heteranthera limosa
Method in brief: as §2

[10] = test system: bamyardgrass; test: Test B flood test barnyardgrass; format: in vivo, Echinochloa crus-galli
Method in brief: as §2

[11] = test system: blackgrass; test: Test B pre/postemergence blackgrass; format: in vivo, Alopecurus myosuroides
Method in brief: as §1

[12] = test system: bedstraw; test: Test B pre/postemergence bedstraw; format: in vivo, Galium aparine
Method in brief: as §1

[13] = test system: velvetleaf; test: Test B pre/postemergence velvetleaf; format: in vivo, Abutilon theophrasti
Method in brief: as §1

[14] = test system: sugar beet; test: Test B pre/postemergence sugar beet; format: in vivo, Beta vulgaris
Method in brief: as §1

[15] = test system: wild oat; test: Test B pre/postemergence wild oat; format: in vivo, Avena fatua
Method in brief: as §1

[16] = Postemergence, Rate 62 g/ha, scale of 0 to 10, 0 is no effect, 10 is complete control
[17] = Postemergence, Rate 125 g/ha, scale 0 to 10, 0 is no effect, 10 is complete control
[18] = Postemergence, Rate 500 g/ha, scale 0 to 10, 0 is no effect, 10 is complete control
[19] = Preemergence, Rate 62 g/ha, scale 0 to 10 (0 no effect, 10 complete control)
[20] = Preemergence, Rate 125 g/ha, scale 0 to 10, 0 is no effect, 10 is complete control
[21] = Preemergence, Rate 500 g/ha, scale of 0 to 10 where 0 is no effect and 10 is complete control
[22] = Rate 250 g/ha, Postemergence, scale of 0 to 10 where 0 is no effect and 10 is complete control
[23] = Rate 62 g/ha, flood test species, Pre-emergence, visual evaluation after twelve to sixteen days
[24] = Rate 125 g/ha, under heading Pre-emergence, flood test species, visual evaluation after twelve to sixteen days
[25] = Rate 250 g/ha, Pre-emergence (flood test species), scale 0 to 10, 0 is no effect, 10 is complete control
[26] = Rate 500 g/ha, Pre-emergence section of Table B, 0 to 10 scale (0 no effect, 10 complete control)

SMILES: CCC=CCn1c(=O)on(C(=O)N(c2ccc(Cl)cc2)C(C)C)c1=O [Compound 552]
- Rape plant response rating [1, 16]: 2
- Rape plant response rating [1, 17]: 6
- Plant response rating, Rape [1, 18]: 7
- Rape plant response rating [1, 19]: 0
- Rape plant response rating [1, 20]: 0
- Rape plant response rating (0 to 10 scale) ([1]; Preemergence, Rate 250 g/ha): 0
- Rape plant response rating [1, 21]: 0
- Plant response rating, Rape [1, 22]: 4
- Plant response rating, S. Flatsedge (0 to 10 scale, 0 is no effect, 10 is complete control) [2, 23]: 0
- S. Flatsedge plant response rating (0 to 10 scale, 0 is no effect, 10 is complete control) [2, 24]: 0
- S. Flatsedge plant response rating [2, 25]: 0
- S. Flatsedge plant response rating [2, 26]: 0
- Soybean plant response rating [3, 16]: 2
- Plant response rating, Soybean [3, 18]: 3
- Soybean plant response rating [3, 19]: 0
- Soybean plant response rating [3, 20]: 0
- Soybean plant response rating (0 to 10 scale) ([3]; Preemergence, Rate 250 g/ha): 0
- Soybean plant response rating [3, 21]: 0
- Plant response rating, Soybean [3, 22]: 3
- Redroot pigweed plant response rating [4, 16]: 0
- Plant response rating, Redroot pigweed [4, 18]: 3
- Redroot pigweed plant response rating [4, 19]: 0
- Redroot pigweed plant response rating [4, 20]: 4
- Redroot pigweed plant response rating (0 to 10 scale) ([4]; Preemergence, Rate 250 g/ha): 4
- Redroot pigweed plant response rating [4, 21]: 4
- Plant response rating, Redroot pigweed [4, 22]: 0
- Morningglory plant response rating [5, 16]: 1
- Morningglory plant response rating [5, 17]: 1
- Plant response rating, Morningglory [5, 18]: 7
- Morningglory plant response rating [5, 19]: 0
- Morningglory plant response rating [5, 20]: 0
- Morningglory plant response rating (0 to 10 scale) ([5]; Preemergence, Rate 250 g/ha): 0
- Morningglory plant response rating [5, 21]: 0
- Plant response rating, Morningglory [5, 22]: 2
- Giant foxtail plant response rating [6, 16]: 0
- Giant foxtail plant response rating [6, 17]: 3
- Plant response rating, Giant foxtail [6, 18]: 7
- Giant foxtail plant response rating [6, 19]: 9
- Giant foxtail plant response rating [6, 20]: 10
- Giant foxtail plant response rating (0 to 10 scale) ([6]; Preemergence, Rate 250 g/ha): 10
- Giant foxtail plant response rating [6, 21]: 10
- Plant response rating, Giant foxtail [6, 22]: 3
- Nutsedge plant response rating [7, 16]: 0
- Nutsedge plant response rating [7, 17]: 0
- Plant response rating, Nutsedge [7, 18]: 0
- Nutsedge plant response rating [7, 19]: 0
- Nutsedge plant response rating [7, 20]: 0
- Nutsedge plant response rating (0 to 10 scale) ([7]; Preemergence, Rate 250 g/ha): 0
- Nutsedge plant response rating [7, 21]: 0
- Plant response rating, Nutsedge [7, 22]: 0
- Wheat plant response rating [8, 16]: 0
- Plant response rating, Wheat [8, 18]: 3
- Wheat plant response rating [8, 19]: 0
- Wheat plant response rating [8, 20]: 0
- Wheat plant response rating (0 to 10 scale) ([8]; Preemergence, Rate 250 g/ha): 0
- Wheat plant response rating [8, 21]: 4
- Plant response rating, Wheat [8, 22]: 0
- Plant response rating, Ducksalad (0 to 10 scale, 0 is no effect, 10 is complete control) [9, 23]: 0
- Ducksalad plant response rating (0 to 10 scale, 0 is no effect, 10 is complete control) [9, 24]: 0
- Ducksalad plant response rating [9, 25]: 0
- Ducksalad plant response rating [9, 26]: 0
- Plant response rating, Barnyardgrass (0 to 10 scale, 0 is no effect, 10 is complete control) [10, 23]: 0
- Barnyardgrass plant response rating (0 to 10 scale, 0 is no effect, 10 is complete control) [10, 24]: 0
- Barnyardgrass plant response rating [10, 25]: 0
- Barnyardgrass plant response rating [10, 26]: 0
- Blackgrass plant response rating [11, 16]: 0
- Blackgrass plant response rating [11, 17]: 0
- Plant response rating, Blackgrass [11, 18]: 7
- Blackgrass plant response rating [11, 19]: 0
- Blackgrass plant response rating [11, 20]: 0
- Blackgrass plant response rating (0 to 10 scale) ([11]; Preemergence, Rate 250 g/ha): 0
- Blackgrass plant response rating [11, 21]: 8
- Plant response rating, Blackgrass [11, 22]: 0
- Bedstraw plant response rating [12, 16]: 2
- Bedstraw plant response rating [12, 17]: 5
- Plant response rating, Bedstraw [12, 18]: 10
- Bedstraw plant response rating [12, 19]: 0
- Bedstraw plant response rating [12, 20]: 0
- Bedstraw plant response rating (0 to 10 scale) ([12]; Preemergence, Rate 250 g/ha): 0
- Bedstraw plant response rating [12, 21]: 8
- Plant response rating, Bedstraw [12, 22]: 10
- Velvetleaf plant response rating [13, 16]: 0
- Plant response rating, Velvetleaf [13, 18]: 3
- Velvetleaf plant response rating [13, 19]: 0
- Velvetleaf plant response rating [13, 20]: 0
- Velvetleaf plant response rating (0 to 10 scale) ([13]; Preemergence, Rate 250 g/ha): 0
- Velvetleaf plant response rating [13, 21]: 0
- Plant response rating, Velvetleaf [13, 22]: 2
- Sugarbeets plant response rating [14, 16]: 0
- Plant response rating, Sugarbeets [14, 18]: 7
- Sugarbeets plant response rating [14, 19]: 0
- Sugarbeets plant response rating [14, 20]: 0
- Sugarbeets plant response rating (0 to 10 scale) ([14]; Preemergence, Rate 250 g/ha): 0
- Sugarbeets plant response rating [14, 21]: 5
- Plant response rating, Sugarbeets [14, 22]: 3
- Wild oats plant response rating [15, 16]: 0
- Plant response rating, Wild oats [15, 18]: 3
- Wild oats plant response rating [15, 19]: 0
- Wild oats plant response rating [15, 20]: 0
- Wild oats plant response rating (0 to 10 scale) ([15]; Preemergence, Rate 250 g/ha): 0
- Wild oats plant response rating [15, 21]: 6
- Plant response rating, Wild oats [15, 22]: 0
